Reference: patent publication US20210060016A1, “ANTICANCER AGENT” (JAPANESE FOUNDATION FOR CANCER RESEARCH, priority 2017, published 2021)

Biological target: T1, tankyrase-2 (Homo sapiens, UniProt Q9H2K2)
T1 sequence (Q9H2K2 1-1166): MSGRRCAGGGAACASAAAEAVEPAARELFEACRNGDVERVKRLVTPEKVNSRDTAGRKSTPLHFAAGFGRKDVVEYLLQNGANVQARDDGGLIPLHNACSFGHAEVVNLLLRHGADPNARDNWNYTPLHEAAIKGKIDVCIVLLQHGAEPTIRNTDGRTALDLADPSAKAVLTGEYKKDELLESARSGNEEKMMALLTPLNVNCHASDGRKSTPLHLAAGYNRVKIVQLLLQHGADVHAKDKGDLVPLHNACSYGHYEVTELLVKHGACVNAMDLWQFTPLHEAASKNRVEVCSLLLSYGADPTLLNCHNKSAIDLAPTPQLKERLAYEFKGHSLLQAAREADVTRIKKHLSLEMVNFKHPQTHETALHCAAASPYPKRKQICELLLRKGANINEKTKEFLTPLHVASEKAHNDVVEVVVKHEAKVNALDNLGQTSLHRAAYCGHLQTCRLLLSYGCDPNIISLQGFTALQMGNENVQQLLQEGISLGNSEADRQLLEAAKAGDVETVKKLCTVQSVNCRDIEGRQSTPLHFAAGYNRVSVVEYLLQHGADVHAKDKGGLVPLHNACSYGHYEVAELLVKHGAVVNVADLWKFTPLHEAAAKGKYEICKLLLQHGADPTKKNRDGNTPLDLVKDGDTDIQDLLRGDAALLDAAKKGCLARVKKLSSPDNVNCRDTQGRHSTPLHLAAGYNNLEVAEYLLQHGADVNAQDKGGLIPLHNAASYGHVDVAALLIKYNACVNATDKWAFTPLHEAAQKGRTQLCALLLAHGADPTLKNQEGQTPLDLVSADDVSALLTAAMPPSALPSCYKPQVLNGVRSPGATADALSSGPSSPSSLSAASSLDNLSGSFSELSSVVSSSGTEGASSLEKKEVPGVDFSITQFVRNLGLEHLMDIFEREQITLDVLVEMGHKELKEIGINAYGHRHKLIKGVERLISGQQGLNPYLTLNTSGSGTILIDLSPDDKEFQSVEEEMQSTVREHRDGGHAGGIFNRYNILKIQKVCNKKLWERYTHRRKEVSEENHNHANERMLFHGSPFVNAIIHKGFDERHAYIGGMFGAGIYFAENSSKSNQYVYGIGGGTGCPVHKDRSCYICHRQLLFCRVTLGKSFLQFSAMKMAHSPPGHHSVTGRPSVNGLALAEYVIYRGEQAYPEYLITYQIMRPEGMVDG
Test: X-ray diffraction of tankyrase-2 crystal soaked with the compound
Type: binding
From the text: In the present invention, whether the tankyrase inhibitory compound is a nicotinamide-type compound or an adenosine-type compound can be determined by X-ray diffraction, more specifically a method in which a complex is crystallized from a mixed liquid of a tankyrase crystal prepared beforehand and the tankyrase inhibitory compound, and subjected to X-ray diffraction (soaking method), or a method in which a complex is crystallized from a mixed liquid having the tankyrase inhibitory compound coexisting with tankyrase in a state before the crystallization, and subjected to X-ray diffraction (co-crystallization). Whether the tankyrase inhibitory compound is a dual-type compound can be determined by preparing a crystal under any one of the above-described conditions, and performing X-ray diffraction.
X-ray diffraction data of a tankyrase-2 crystal soaked with the compound prepared in Compound Example 1 was measured with BL26B2 Beam Line in a large synchrotron radiation facility Spring-8 (Sayo-gun, Hyogo). The wavelength of the X-ray was 1.000 Å, and MX-225 (Rayonix, LLC) was used as a detector. The diffraction data was treated with XDS (Kabsch, 2010) and the CCP4 program (Winn et al., 2011).

CCOc1ccc(-c2n[nH]nc2[C@H]2NC(=O)c3cccc(C)c3N2)cc1 [Compound Example 101, (2R)-2-[5-(4-Ethoxyphenyl)-2H-1,2,3-triazol-4-yl]-8-methyl-2,3-dihydro-1H-quinazolin-4-one]
binding pocket type by X-ray diffraction: nicotinamide-type compound which binds to the nicotinamide binding pocket of tankyrase
